Test results as given in patent US8012940B2, “Utilization of anti-neuropathic pain effect of D-allose and D-psicose” (Teikoku Seiyaku Co., Ltd., priority 2005, dated 2011).

Experiments:
[1] = test system: Chung model as a rat neuropathic pain model; assay: von Frey test, pain threshold in the Chung model; format: in vivo; conditions: for pain threshold at the von Frey test: vs distilled water-dosed group; for pain threshold, dose dependence: 1 to 6 g/kg oral
Procedure: Male SD rats of age 6 weeks were divided into groups, each group consisting of 10 rats. So as to examine the effect of a test substance on neuropathic pain, the Chung model was prepared. Specifically, unilateral 5-th and 6-th lumbar pulp nerves of the lumbar pulp nerves were completely knotted at a site as close as possible to lumbar vertebrae. After a 10-day recovery period, the von Frey test was done on the footpad on the surgery side, to measure the pain threshold. The von Frey test was done three times at a 1-week interval as drug holiday. At the first test, the effect of D-allose on the pain threshold was examined; and at the second test and the third test, the effects of D-psicose and a mixture of D-allose and D-psicose on the pain threshold were examined. The test substances were all dissolved in distilled water. The dose in volume was 5 mL/kg for oral administration. The pain threshold was measured immediately before the administration of test substances, and 15 minutes, 30 minutes, 60 minutes and 120 minutes after the administration. The results are expressed as mean and standard error. The significance of the mean was tested by the Dunnett's multiple test. Neuropathic pain models are frequently used as human neuralgia models for making research works on pain and screening for analgesics. […] The Chung model as the neuropathic pain model used in the research works is a model with a characteristic feature such that the model is afflicted with a strong pain on contact stimulation, and is known that the model is annoyed with a pain very similar to human neuralgia (Exp. Brain Res., 113, 200-206, 1997). In such model, the von Frey test is frequently used so as to assay the pain intensity via contact. The von Frey test is a method for observing whether or not an animal when the footpad is pressed with a fine metal wire withdraws the leg. When the animal withdraws the leg, the force just pressing the footpad is defined the threshold then.

leukocyte = conditions: in vitro, cited from earlier work
Solubility in water = format: physicochemical

SMILES | pain threshold at the von Frey test ([1]; 1 g/kg oral, N=10) | pain threshold at the von Frey test ([1]; 3 g/kg oral, 15 minutes after administration) | pain threshold at the von Frey test ([1]; 6 g/kg oral, 15, 30 and 60 minutes after administration) | pain threshold, dose dependence ([1]; single administration) | active oxygen generation (leukocyte; leukocyte) | solubility in water (Solubility in water) | pain threshold at the von Frey test ([1]; 1 g/kg oral, 15 minutes after administration) | pain threshold at the von Frey test ([1]; 3 g/kg oral, 15 and 30 minutes after administration) | increase of the threshold compared with the administration of D-allose ([1]; single administration, oral) | MCP-1 secretion (leukocyte; similar experiments) | active oxygen scavenging (leukocyte; similar experiments)
O=C[C@H](O)[C@H](O)[C@H](O)[C@H](O)CO [D-allose] | not significantly different | significant increase | significant increase | highly raised, in a manner proportional to the dose | action of suppressing active oxygen generation | highly soluble in water |  |  |  |  | 
O=C(CO)[C@H](O)[C@H](O)[C@H](O)CO [D-psicose] |  |  |  | highly raised, in a manner proportional to the dose |  | highly soluble in water | not significantly different | significant increase | greater | MCP-1 secretion-suppressing action | active oxygen-scavenging action
